This is an account of results in patent US20250188618A1, “AMINO ACID DERIVATIVES AND SULFUR DERIVATIVES AS BIODEGRADABLE CORROSION INHIBITORS” (ChampionX LLC, priority 2023, published 2025).

A short description of assay [1]: Bubble cell test, corrosion rate by linear polarization resistance (LPR). The settings on record: during 2 hour pre-corrode, prior to the addition of corrosion inhibitor; CO2 saturated 3% NaCl brine 80% / hydrocarbon oil 20%, 65° C. The procedure: The derivatized succinate corrosion inhibitors made according to Examples 1-5 were evaluated using bubble cell tests to assess corrosion performance using linear polarization resistance testing. The derivatized succinate corrosion inhibitors were combined with the sulfur synergist 2-mercaptoethanol in a solution so that the concentrations of corrosion inhibitor and 2-mercaptoethanol were 10% and 1% by weight, respectively. Methanol, isopropanol, water, and combinations thereof were used as solvents. Acids or bases were sometimes added either to form or neutralize salts of the inhibitors to influence their solubility. This solution was then dosed into the bubble cell at a concentration of 50 ppm, ultimately providing 5 ppm of corrosion inhibitor and 0.5 ppm of 2-mercaptoethanol. The bubble test simulates low flow areas where little or no mixing of water and oil occurs. The test was conducted using a mixed fluid composed of 80% by volume of synthetic brine composed of 3% sodium chloride and 20% of hydrocarbon oil.
The brine without inhibitor was first placed into kettles and purged with carbon dioxide for one hour resulting in carbon dioxide saturated brine. The brine was heated to 65° C., and electrodes were introduced into the de-aerated brine, followed by de-aerated oil, all of which was continually purged with carbon dioxide at 1 bar CO2 to saturate the brine for a 2 hour pre-corrode. The kettles were magnetically stirred at 100 revolutions per minute (rpm) for the duration of the test. The CO2 purge was switched to a blanket, the corrosion inhibitor solution was added, and the test timer started. Data were collected overnight for 15-hour test duration.
The corrosion rate was measured by Linear Polarization Resistance (LPR) techniques. The working electrode used was carbon steel (C1018 grade). The counter and reference electrodes were both Hastelloy. The electrodes were all cleaned and polished prior to testing. Corrosion rates were given in milli-inches per year (mpy), calculated from the current measured by LPR. Corrosion inhibition is compared to two known corrosion inhibitors: a cationic surfactant (alkylbenzyldimethylammonium chloride) and a Tall oil fatty acid (TOFA)-diethylenetriamine (DETA) imidazoline.
The bubble cell results provide a low shear screening designed for continuous application. The performance is measured as percent protection by comparing the initial corrosion rate during pre-corrode, prior to the addition of a corrosion inhibitor, to the final corrosion rate, measured 15 hours after corrosion inhibitor dosing.

Assay [2] in a line: Wheel box testing, corrosion inhibition persistence for batch applications. The settings on record: 1% corrosion inhibitor active in 3% NaCl, 60° C., saturated CO2 at 1 atm, 96 hour, average of 2 runs; inhibitor in neutral form. The procedure: The corrosion inhibitors were tested using wheel box testing which is a screening method for measuring corrosion inhibition persistence for batch applications. Metal coupons are dip-coated in a solution of the inhibitor in neutral form (non-salt), then placed onto a wheel and immersed in corrosive solution. The wheel is rotated in the solution under desired conditions. At regular time intervals, the solution without inhibitor is replenished. At the conclusion of the test, corrosion rates are measured as a function of the mass loss of the metal coupons.

For “2-sulfosuccinic acid, iso-C11-14-alkyl ester, disodium salt [Example 6]”, the “Initial corrosion rate (mpy)” value in assay [1] worked out at 186.9 mpy.

For the compound “6,9-dioxa-3,12-diazatetradecane-1,2,13,14-tetracarboxylic acid, dioleyl ester [Example 10]”, the “Initial corrosion rate (mpy)” value in assay [1] was found to be 157.2 mpy. In addition, in assay [2], the “Wheel-Box, % Inhibition” value is 42%.

Consider “2-(carboxymethylthio)succinic acid, iso-C11-14-alkyl ester, monosodium salt [Example 7]”, for which the “Initial corrosion rate (mpy)” value in assay [1] is listed as 160.1 mpy.

Consider “N-(2-ethylhexyl)aspartic acid, 2-ethylhexyl ester [Example 3]”, for which the “Initial corrosion rate (mpy)” value in assay [1] was found to be 248.8 mpy. Further, in assay [2], the “Wheel-Box, % Inhibition” value was 56%.

On to “N-(oleyl)aspartic acid, 2-ethylhexyl ester [Example 4]”, for which the “Initial corrosion rate (mpy)” value in assay [1] amounted to 213.0 mpy. The “Wheel-Box, % Inhibition” value in assay [2] is given as 64%.

On to “N-(2-ethylhexyl)aspartic acid, C12-15-alkyl ester [Example 1]”, for which the “Initial corrosion rate (mpy)” value in assay [1] amounted to 245.7 mpy.

For the compound “alkylbenzyldimethylammonium chloride [Cationic surfactant control, reference compound]”, in assay [1], the “Initial corrosion rate (mpy)” value is given as 233.4 mpy.

In the case of `CCCCCCCCCCCCOC(=O)CC1NCCN(CCN)C1=O` (centres unmarked) [Example 9, (4-(2-aminoethyl)-3-oxo-2-piperazinyl)acetic acid, dodecyl ester], in assay [1], the “Initial corrosion rate (mpy)” value was 204.3 mpy.

As for `CCCCCCCCCCCCSC(CC(=O)O)C(=O)[O-].[Na+]` (centres unmarked) [Example 8, 2-(dodecylthio)succinic acid, monosodium salt], the “Initial corrosion rate (mpy)” value in assay [1] amounted to 137.2 mpy.

In the case of `CCCCCCCC/C=C\CCCCCCCCN[C@@H](CC(=O)O)C(=O)[O-].[K+]` [Example 5, N-(oleyl)aspartic acid, monopotassium salt], in assay [1], the “Initial corrosion rate (mpy)” value was 103.3 mpy.

Regarding “N-oleylaspartic acid, iso-C11-14-alkyl ester [Example 2]”, the “Initial corrosion rate (mpy)” value in assay [1] stood at 252.4 mpy.
